Assay results taken from US10155768B2, “Fused pyrimidine compound or salt thereof” (TAIHO PHARMACEUTICAL CO., LTD., priority 2016, dated 2018).

Assay: Evaluation of stability in liver microsome
Conditions: mouse liver microsome 0.25 mg/mL, 1 μM test compound, 37° C. for 30 minutes
Procedure: Solutions of the test compounds in DMSO/acetonitrile (the final concentration of each test compound was 1 μM, the final concentration of DMSO was 0.01%, and the final concentration of acetonitrile was 1%) were individually added to a liver microsome mixture solution (mouse liver microsome with a final concentration of 0.25 mg/mL, a potassium phosphate buffer with a final concentration of 100 mM, and magnesium chloride with a final concentration of 3 mM), and each mixture was pre-incubated at 37° C. for 5 minutes. […] After incubation at 37° C. for 30 minutes, a double amount of ethanol was added thereto to terminate the reaction, thereby obtaining post-reaction samples. A double amount of ethanol was added to each of the remaining mixture solutions, and a NADPH-generating system was further added thereto, thereby obtaining pre-reaction samples. The pre-reaction samples and post-reaction samples were centrifuged at 2000×g, and their supernatant was filtered through a glass filter. Each filtrate was then introduced into LC-MS/MS, and MS/MS peaks of the test compounds were detected. From the ratio of the post-reaction MS/MS peak to the pre-reaction MS/MS peak of the test compounds, the percentage of the remaining test compounds (remaining %) was calculated.

| Compound | Remaining (%) |
| --- | --- |
| COCc1ccc(NC(=O)c2c(C#CCC(C)O)n(C3(C)CC3)c3ncnc(N)c23)cc1 (stereo not drawn) [Example 188, 4-amino-6-(4-hydroxypent-1-yn-1-yl)-N-(4-(methoxymethyl)phenyl)-7-(1-methylcyclopropyl)-7H-pyrrolo[2,3-d]pyrimidine-5-carboxamide] | 68% |
| COCc1ccc(NC(=O)c2c(C#Cc3cccnc3)n(C3(C)CC3)c3ncnc(N)c23)cc1 [Example 94, 4-amino-N-[4-(methoxymethyl)phenyl]-7-(1-methylcyclopropyl)-6-(pyridin-3-ylethynyl)-7H-pyrrolo[2,3-d]pyrimidine-5-carboxamide] | 60% |
| COCc1ccc(NC(=O)c2c(C#Cc3ccc(OC)nc3)n(C3(C)CC3)c3ncnc(N)c23)cc1 [Example 192, 4-amino-N-(4-(methoxymethyl)phenyl)-6-((6-methoxypyridin-3-yl)ethynyl)-7-(1-methylcyclopropyl)-7H-pyrrolo[2,3-d]pyrimidine-5-carboxamide] | 79% |
| COCc1ccc(NC(=O)c2c(C#Cc3cnc4ccoc4c3)n(C3(C)CC3)c3ncnc(N)c23)cc1 [Example 159, 4-amino-6-(furo[3,2-b]pyridin-6-ylethynyl)-N-(4-(methoxymethyl)phenyl)-7-(1-methylcyclopropyl)-7H-pyrrolo[2,3-d]pyrimidine-5-carboxamide] | 78% |
| COCc1ccc(NC(=O)c2c(/C=C/CO)n(C3(C)CC3)c3ncnc(N)c23)cc1 [Example 109, (E)-4-amino-6-(3-hydroxyprop-1-en-1-yl)-N-(4-(methoxymethyl)phenyl)-7-(1-methylcyclopropyl)-7H-pyrrolo[2,3-d]pyrimidine-5-carboxamide] | 68% |
| COCc1ccc(NC(=O)c2c(OCCN3CCCC3=O)n(C3(C)CC3)c3ncnc(N)c23)cc1 [Example 136, 4-amino-N-(4-(methoxymethyl)phenyl)-7-(1-methylcyclopropyl)-6-(2-(2-oxopyrrolidin-1-yl)ethoxy)-7H-pyrrolo[2,3-d]pyrimidine-5-carboxamide] | 78% |
| COCc1ccc(NC(=O)c2c(C#CC3(O)CCOC3)n(C3(C)CC3)c3ncnc(N)c23)cc1 (stereo not drawn) [Example 177, 4-amino-6-((3-hydroxytetrahydrofuran-3-yl)ethynyl)-N-(4-(methoxymethyl)phenyl)-7-(1-methylcyclopropyl)-7H-pyrrolo[2,3-d]pyrimidine-5-carboxamide] | 72% |
| C=Cc1c(C(=O)Nc2ccc(COC)cc2)c2c(N)ncnc2n1C1(C)CC1 [Example 65, 4-amino-N-(4-(methoxymethyl)phenyl)-7-(1-methylcyclopropyl)-6-vinyl-7H-pyrrolo[2,3-d]pyrimidine-5-carboxamide] | 79% |
| COCc1ccc(NC(=O)c2c(C#Cc3ccn(C)n3)n(C3(C)CC3)c3ncnc(N)c23)cc1 [Example 92, 4-amino-N-(4-(methoxymethyl)phenyl)-6-((1-methyl-1H-pyrazol-3-yl)ethynyl)-7-(1-methylcyclopropyl)-7H-pyrrolo[2,3-d]pyrimidine-5-carboxamide] | 67% |
| COCc1ccc(NC(=O)c2c(C#Cc3cccc(F)c3)n(C3(C)CC3)c3ncnc(N)c23)cc1 [Example 130, 4-amino-6-((3-fluorophenyl)ethynyl)-N-(4-(methoxymethyl)phenyl)-7-(1-methylcyclopropyl)-7H-pyrrolo[2,3-d]pyrimidine-5-carboxamide] | 84% |
| COCc1ccc(NC(=O)c2c(F)n(C3(C)CC3)c3ncnc(N)c23)cc1 [Example 69, 4-amino-6-fluoro-N-(4-(methoxymethyl)phenyl)-7-(1-methylcyclopropyl)-7H-pyrrolo[2,3-d]pyrimidine-5-carboxamide] | 69% |
| COCc1ccc(NC(=O)c2c(OCC(C)C)n(C3(C)CC3)c3ncnc(N)c23)cc1 [Example 99, 4-amino-6-isobutoxy-N-(4-(methoxymethyl)phenyl)-7-(1-methylcyclopropyl)-7H-pyrrolo[2,3-d]pyrimidine-5-carboxamide] | 51% |
| COCc1ccc(NC(=O)c2c(-c3ccc(F)nc3)n(C3(C)CC3)c3ncnc(N)c23)cc1 [Example 190, 4-amino-6-(6-fluoropyridin-3-yl)-N-(4-(methoxymethyl)phenyl)-7-(1-methylcyclopropyl)-7H-pyrrolo[2,3-d]pyrimidine-5-carboxamide] | 58% |
| COCc1ccc(NC(=O)c2c(C#CC(C)(C)O)n(C3(C)CC3)c3ncnc(N)c23)cc1 [Example 174, 4-amino-6-(3-hydroxy-3-methylbut-1-yn-1-yl)-N-(4-(methoxymethyl)phenyl)-7-(1-methylcyclopropyl)-7H-pyrrolo[2,3-d]pyrimidine-5-carboxamide] | 72% |
| COCc1ccc(NC(=O)c2c(C#Cc3cncnc3)n(C3(C)CC3)c3ncnc(N)c23)cc1 [Example 196, 4-amino-N-(4-(methoxymethyl)phenyl)-7-(1-methylcyclopropyl)-6-(pyrimidin-5-ylethynyl)-7H-pyrrolo[2,3-d]pyrimidine-5-carboxamide] | 53% |
| COCc1ccc(NC(=O)c2c(C#Cc3ccn[nH]3)n(C3(C)CC3)c3ncnc(N)c23)cc1 [Example 129, 6-((1H-pyrazol-5-yl)ethynyl)-4-amino-N-(4-(methoxymethyl)phenyl)-7-(1-methylcyclopropyl)-7H-pyrrolo[2,3-d]pyrimidine-5-carboxamide] | 54% |
| COCc1ccc(NC(=O)c2c(C#Cc3ccc(OC)cc3)n(C3(C)CC3)c3ncnc(N)c23)cc1 [Example 165, 4-amino-N-(4-(methoxymethyl)phenyl)-6-((4-methoxypheny)ethynyl)-7-(1-methylcyclopropyl)-7H-pyrrolo[2,3-d]pyrimidine-5-carboxamide] | 90% |
| COCc1ccc(NC(=O)c2c(C#CCN3CCCCC3)n(C3(C)CC3)c3ncnc(N)c23)cc1 [Example 105, 4-amino-N-[4-(methoxymethyl)phenyl]-7-(1-methylcyclopropyl)-6-(3-(piperidin-1-yl)prop-1-yn-1-yl)-7H-pyrrolo[2,3-d]pyrimidine-5-carboxamide] | 52% |
| COCc1ccc(NC(=O)c2c(C#Cc3csc(C)n3)n(C3(C)CC3)c3ncnc(N)c23)cc1 [Example 126, 4-amino-N-(4-(methoxymethyl)phenyl)-7-(1-methylcyclopropyl)-6-((2-methylthiazol-4-yl)ethynyl)-7H-pyrrolo[2,3-d]pyrimidine-5-carboxamide] | 69% |
| COCc1ccc(NC(=O)c2c(-c3ccc(CO)cc3)n(C3(C)CC3)c3ncnc(N)c23)cc1 [Example 145, 4-amino-6-(4-(hydroxymethyl)phenyl)-N-(4-(methoxymethyl)phenyl)-7-(1-methylcyclopropyl)-7H-pyrrolo[2,3-d]pyrimidine-5-carboxamide] | 72% |
| COCc1ccc(NC(=O)c2c(C#Cc3cccc(NCc4ccncc4)c3)n(C3(C)CC3)c3ncnc(N)c23)cc1 [Example 122, 4-amino-N-(4-(methoxymethyl)phenyl)-7-(1-methylcyclopropyl)-6-((3-((pyridin-4-ylmethyl)amino)phenyl)ethynyl)-7H-pyrrolo[2,3-d]pyrimidine-5-carboxamide] | 62% |
| COCc1ccc(NC(=O)c2c(C#Cc3cnc4cccnn34)n(C3(C)CC3)c3ncnc(N)c23)cc1 [Example 91, 4-amino-6-(imidazo[1,2-b]pyridazin-3-ylethynyl)-N-[4-(methoxymethyl)phenyl]-7-(1-methylcyclopropyl)-7H-pyrrolo[2,3-d]pyrimidine-5-carboxamide] | 65% |
| COCc1ccc(NC(=O)c2c(C#Cc3ccc[nH]3)n(C3(C)CC3)c3ncnc(N)c23)cc1 [Example 161, 6-((1H-pyrrol-2-yl)ethynyl)-4-amino-N-(4-(methoxymethyl)phenyl)-7-(1-methylcyclopropyl)-7H-pyrrolo[2,3-d]pyrimidine-5-carboxamide] | 68% |
| COCc1ccc(NC(=O)c2c(C#Cc3cccs3)n(C3(C)CC3)c3ncnc(N)c23)cc1 [Example 119, 4-amino-N-(4-(methoxymethyl)phenyl)-7-(1-methylcyclopropyl)-6-(thiophen-2-ylethynyl)-7H-pyrrolo[2,3-d]pyrimidine-5-carboxamide] | 70% |
| COCc1ccc(NC(=O)c2cn(C(C)(C)CF)c3ncnc(N)c23)cc1 [Example 26, 4-amino-7-(1-fluoro-2-methylpropan-2-yl)-N-(4-(methoxymethyl)phenyl)-7H-pyrrolo[2,3-d]pyrimidine-5-carboxamide] | 60% |
| COCc1ccc(NC(=O)c2c(C#Cc3c[nH]c4ccccc34)n(C3(C)CC3)c3ncnc(N)c23)cc1 [Example 121, 6-((1H-indol-3-yl)ethynyl)-4-amino-N-(4-(methoxymethyl)phenyl)-7-(1-methylcyclopropyl)-7H-pyrrolo[2,3-d]pyrimidine-5-carboxamide] | 74% |
| COCc1ccc(NC(=O)c2c(-c3cccnc3)n(C3(C)CC3)c3ncnc(N)c23)cc1 [Example 61, 4-amino-N-(4-(methoxymethyl)phenyl)-7-(1-methylcyclopropyl)-6-(pyridin-3-yl)-7H-pyrrolo[2,3-d]pyrimidine-5-carboxamide] | 81% |
| COCc1ccc(NC(=O)c2c(OC[C@@H](C)OC)n(C3(C)CC3)c3ncnc(N)c23)cc1 [Example 96, (R)-4-amino-N-(4-(methoxymethyl)phenyl)-6-(2-methoxypropoxy)-7-(1-methylcyclopropyl)-7H-pyrrolo[2,3-d]pyrimidine-5-carboxamide] | 71% |
| COCc1ccc(NC(=O)c2c(C#CCC3(O)CCC3)n(C3(C)CC3)c3ncnc(N)c23)cc1 [Example 103, 4-amino-6-(3-(1-hydroxycyclobutyl)prop-1-yn-1-yl)-N-(4-(methoxymethyl)phenyl)-7-(1-methylcyclopropyl)-7H-pyrrolo[2,3-d]pyrimidine-5-carboxamide] | 60% |
| COCc1ccc(NC(=O)c2c(OCC3CCOCC3)n(C3(C)CC3)c3ncnc(N)c23)cc1 [Example 141, 4-amino-N-(4-(methoxymethyl)phenyl)-7-(1-methylcyclopropyl)-6-((tetrahydro-2H-pyran-4-yl)methoxy)-7H-pyrrolo[2,3-d]pyrimidine-5-carboxamide] | 68% |
